Results on four compounds are retold here after patent US7666582B2, “IdeS, an IgG-degrading enzyme of Streptococcus pyogenes” (Hansa Medical Research AB, priority 2001, dated 2010).

Assay [1] has as its target SpeB (Streptococcus pyogenes, UniProt P0C0J0). The following applies: cited from earlier work.
In assay [2] the test system is IgG-cleaving activity of S. pyogenes strain AP1 growth medium. In words: Cleavage of IgG in AP1 growth medium with E64 added. Format: biochemical. Particulars: E64 added to the AP1 growth medium, TH medium with 10% human plasma.
Assay [3] relates to IdeS. Kind of assay: Proteinase inhibition assay (IgG cleavage by IdeS, SDS-PAGE). Format: biochemical, S. pyogenes. The following applies: 30 min preincubation, IdeS 0.3 μg/ml. On the procedure: Partially purified IdeS (0.3 μg/ml) was incubated with either 20 nM iodoacetic acid, Z-LVG-CHN2 (Björck et al., 1989) at 0.4 mg/ml in 1% DMSO, or E64 (40 μM). The tubes were kept in the dark and incubated for 30 min at room temperature. As controls, IdeS was also kept in phosphate buffered saline (PBS) or in 1% DMSO, the solvent for Z-LVG-CHN2. After 30 min, 5 μl of 10 mg/ml IgG (Sigma) were added, and the volume was adjusted to 100 μl with PBS. Incubation was continued for 60 min at 37° C. The reaction was stopped by the addition of SDS-PAGE sample buffer and samples were analyzed by 12% SDS-PAGE.

In assay [4] the test system is S. pyogenes. Particulars: in vivo; cited from earlier work.
Assay [5] concerns S. pyogenes. Particulars: in vitro; cited from earlier work.
The target of assay [6] is T1, papain (Carica papaya, UniProt P00784).
T1 sequence (P00784 134-345): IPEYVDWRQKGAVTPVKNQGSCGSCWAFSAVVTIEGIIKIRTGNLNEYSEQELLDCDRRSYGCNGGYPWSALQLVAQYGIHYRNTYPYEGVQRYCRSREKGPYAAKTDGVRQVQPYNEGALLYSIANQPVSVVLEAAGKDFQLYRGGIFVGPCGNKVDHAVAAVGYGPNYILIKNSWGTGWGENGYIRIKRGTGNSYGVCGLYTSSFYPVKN
The following applies: cited from earlier work.

Assay [7] concerns IdeS. Kind of assay: Inhibition of IdeS activity by IgG-binding streptococcal proteins. The format is biochemical, S. pyogenes.

Entries after “also recorded” stand apart in the source; their conditions may differ. Read-outs that look alike come from different tables or passages of the source. * marks the point of attachment. code Z = not defined here; CHN2 = [N-]=[N+]=C*

On to `CC(C)C[C@H](NC(=O)[C@H]1O[C@@H]1C(=O)O)C(=O)NCCCCN=C(N)N` (relative stereo) [E64, trans-epoxysuccinyl-L-leucylamido-(4-Guanidino) butane], for which, in assay [1], the “inhibition of the proteolytic activity of SpeB” value is reported as “efficiently blocked; also recorded: irreversibly block the proteolytic activity of SpeB”. Besides, the “inhibition of the cleavage of IgG (31 kDa product)” value in assay [2] is given as “did not inhibit the cleavage of IgG”. In addition, the “inhibition of the activity of IdeS (IgG cleavage)” value (“inhibition of the activity of IdeS” for short) in assay [3] (E64 (40 μM)) was “had no effect on the enzyme; also recorded: not affected”. The “inhibition of streptococcal growth” value in assay [4] and in assay [5] was “only Z-LVG-CHN2 inhibited streptococcal growth” each time.

On to `O=C(O)CI` [iodoacetic acid], for which the “inhibition of the activity of IdeS” value in assay [3] (20 nM iodoacetic acid) is “efficiently inhibited the activity of IdeS”.

Take “Z-LVG-CHN2: peptide derivate based on the inhibitory reactive site of cystatin C, carrying a diazomethyl ketone group ({code Z}-Leu-Val-Gly-CHN2; reading uncertain)”: the “inhibition of the proteolytic activity of SpeB” value in assay [1] is “irreversibly inhibit; also recorded: irreversibly block the proteolytic activity of SpeB”. The inhibition of papain entry in assay [6] is recorded as “irreversibly inhibit”. Also, the “inhibition of the activity of IdeS” value in assay [3] (Z-LVG-CHN2 at 0.4 mg/ml in 1% DMSO) is recorded as “efficiently inhibited the activity of IdeS; also recorded: is inhibited”. In addition, the “inhibition of streptococcal growth” value in assay [4] and in assay [5] was “inhibited streptococcal growth” throughout.

As to “protein G: streptococcal protein that binds the Cγ2-Cγ3 interphase region of IgG”, in assay [7], the “inhibition of IdeS activity” value is listed as “cannot inhibit IdeS activity”.
